Measurements reported in US20190282496A1 (Bryn Pharma, LLC, priority 2018, published 2019).

Legend:
[1] = test system: histamine induced nasal congestion
[2] = dogs; concomitant intranasal administration of phentolamine; Bleske et al.; cited from earlier work

Row | SMILES | nasal congestion and flow restriction pressure ([1]; Group 1, 5 and 10 minutes post-histamine exposure) | histamine-induced nasal congestion ([1]; aerosolized 5% histamine, all animals) | histamine induced congestion without epinephrine administration ([1]; pilot study, 60, 80 and 100 minute time points) | epinephrine plasma levels following intranasal administration [2]
1 | NCCc1c[nH]cn1 [Histamine] | progressive increase | induced congestion in all animals to varying degrees | remains elevated at significant levels | –
2 | Cc1ccc(N(CC2=NCCN2)c2cccc(O)c2)cc1 [phentolamine] | – | – | – | enhanced
